Where two headings read alike, the source gives them in different places.
Key:
Assay in all cases: Test E pre-/postemergence plant response
Format in all cases: in vivo
[1] = system: winter wheat (Triticum aestivum); details: scale 0 to 100, read-out: Plant response rating, Wheat, Winter; for plant injury at 16 g/ha: 16 g ai/ha; for plant injury at 62 g/ha: 62 g ai/ha; for plant injury at 125 g/ha: 125 g ai/ha
Summary of the method: (§1)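 Pre-emergence: seeds sown in silt loam soil and sprayed with test chemicals in a non-phytotoxic solvent/surfactant mix. Post-emergence: plants at 2–18 cm (1- to 4-leaf stage) in peat/vermiculite medium treated with the same formulation. Visual rating versus controls after 7–21 days, 0 (no effect) to 100 (complete control).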

[2] = system: blackgrass (Alopecurus myosuroides); details: scale 0 to 100, read-out: Plant response rating, Blackgrass; for pest or weed control at 16 g/ha: 16 g ai/ha; for pest or weed control at 31 g/ha: 31 g ai/ha; for pest or weed control at 62 g/ha: 62 g ai/ha; for pest or weed control at 125 g/ha: 125 g ai/ha
Summary of the method: as §1

[3] = system: wild oat (Avena fatua); details: scale 0 to 100, read-out: Plant response rating, Oat, Wild; for pest or weed control at 16 g/ha: 16 g ai/ha; for pest or weed control at 31 g/ha: 31 g ai/ha; for pest or weed control at 62 g/ha: 62 g ai/ha; for pest or weed control at 125 g/ha: 125 g ai/ha
Summary of the method: as §1

[4] = system: wild radish (Raphanus raphanistrum); details: scale 0 to 100, read-out: Plant response rating, Radish, Wild; for pest or weed control at 16 g/ha: 16 g ai/ha; for pest or weed control at 31 g/ha: 31 g ai/ha; for pest or weed control at 62 g/ha: 62 g ai/ha; for pest or weed control at 125 g/ha: 125 g ai/ha
Summary of the method: as §1

[5] = system: winter barley (Hordeum vulgare); details: scale 0 to 100, read-out: Plant response rating, Barley, Winter; for plant injury at 16 g/ha: 16 g ai/ha; for plant injury at 31 g/ha: 31 g ai/ha; for plant injury at 62 g/ha: 62 g ai/ha; for plant injury at 125 g/ha: 125 g ai/ha
Summary of the method: as §1

[6] = system: lambsquarters (Chenopodium album); details: scale 0 to 100, read-out: Plant response rating, Lambsquarters; for pest or weed control at 16 g/ha: 16 g ai/ha; for pest or weed control at 31 g/ha: 31 g ai/ha; for pest or weed control at 62 g/ha: 62 g ai/ha; for pest or weed control at 125 g/ha: 125 g ai/ha
Summary of the method: as §1

[7] = system: windgrass (Apera spica-venti); details: scale 0 to 100, read-out: Plant response rating, Windgrass; for pest or weed control at 16 g/ha: 16 g ai/ha; for pest or weed control at 62 g/ha: 62 g ai/ha; for pest or weed control at 125 g/ha: 125 g ai/ha
Summary of the method: as §1

[8] = system: bluegrass (annual bluegrass, Poa annua); details: scale 0 to 100, read-out: Plant response rating, Bluegrass; for pest or weed control at 16 g/ha: 16 g ai/ha; for pest or weed control at 31 g/ha: 31 g ai/ha; for pest or weed control at 62 g/ha: 62 g ai/ha; for pest or weed control at 125 g/ha: 125 g ai/ha
Summary of the method: as §1

[9] = system: kochia (Kochia scoparia); details: Bassia scoparia, scale 0 to 100, read-out: Plant response rating, Kochia; for pest or weed control at 16 g/ha: 16 g ai/ha; for pest or weed control at 31 g/ha: 31 g ai/ha; for pest or weed control at 62 g/ha: 62 g ai/ha; for pest or weed control at 125 g/ha: 125 g ai/ha
Summary of the method: as §1

[10] = system: canarygrass (Phalaris minor); details: scale 0 to 100, read-out: Plant response rating, Canarygrass; for pest or weed control at 16 g/ha: 16 g ai/ha; for pest or weed control at 31 g/ha: 31 g ai/ha; for pest or weed control at 62 g/ha: 62 g ai/ha; for pest or weed control at 125 g/ha: 125 g ai/ha
Summary of the method: as §1

[11] = system: pigweed (Amaranthus retroflexus); details: scale 0 to 100, read-out: Plant response rating, Pigweed; for pest or weed control at 16 g/ha: 16 g ai/ha; for pest or weed control at 31 g/ha: 31 g ai/ha; for pest or weed control at 62 g/ha: 62 g ai/ha; for pest or weed control at 125 g/ha: 125 g ai/ha
Summary of the method: as §1

[12] = post-emergence, 31 g ai/ha, Postemergence

Fc1cccc(Oc2ncc(Cl)cn2)c1-c1cc(C(F)(F)F)on1 [Compound 168, 5-chloro-2-[2-[5-(trifluoromethyl)-3-isoxazolyl]-3-fluorophenoxy]pyrimidine] was tested, and the plant injury at 16 g/ha ([1]; post-emergence, Postemergence) was 5%, the plant injury at 31 g/ha [1, 12] was 10% and the plant injury at 62 g/ha ([1]; post-emergence, Postemergence) was 25%. The plant injury at 125 g/ha ([1]; post-emergence, Postemergence) was 35%, the plant injury at 16 g/ha ([1]; pre-emergence, Preemergence) was 5% and the plant injury at 62 g/ha ([1]; pre-emergence, Preemergence) was 10%. For the same molecule, the plant injury at 125 g/ha ([1]; pre-emergence, Preemergence) was 30%, the pest or weed control at 16 g/ha ([2]; post-emergence, Postemergence) was 15% and the pest or weed control at 31 g/ha ([2]; post-emergence, Postemergence) was 25%. It also gave a pest or weed control at 62 g/ha ([2]; post-emergence, Postemergence) of 35%, a pest or weed control at 125 g/ha ([2]; post-emergence, Postemergence) of 60% and a pest or weed control at 16 g/ha ([2]; pre-emergence, Preemergence) of 10%. The pest or weed control at 31 g/ha ([2]; pre-emergence, Preemergence) was 35%, the pest or weed control at 62 g/ha ([2]; pre-emergence, Preemergence) was 100% and the pest or weed control at 125 g/ha ([2]; pre-emergence, Preemergence) was 100%. It also gave a pest or weed control at 16 g/ha ([3]; post-emergence, Postemergence) of 5%, a pest or weed control at 31 g/ha ([3]; post-emergence, Postemergence) of 10% and a pest or weed control at 62 g/ha ([3]; post-emergence, Postemergence) of 40%. For the same molecule, the pest or weed control at 125 g/ha ([3]; post-emergence, Postemergence) was 65%, the pest or weed control at 16 g/ha ([3]; pre-emergence, Preemergence) was 10% and the pest or weed control at 31 g/ha ([3]; pre-emergence, Preemergence) was 10%. The pest or weed control at 62 g/ha ([3]; pre-emergence, Preemergence) was 35%, the pest or weed control at 125 g/ha ([3]; pre-emergence, Preemergence) was 50% and the pest or weed control at 16 g/ha ([4]; post-emergence, Postemergence) was 70%. It also gave a pest or weed control at 31 g/ha ([4]; post-emergence, Postemergence) of 75%, a pest or weed control at 62 g/ha ([4]; post-emergence, Postemergence) of 80% and a pest or weed control at 125 g/ha ([4]; post-emergence, Postemergence) of 85%. It also gave a pest or weed control at 16 g/ha ([4]; pre-emergence, Preemergence) of 0%, a pest or weed control at 31 g/ha ([4]; pre-emergence, Preemergence) of 45% and a pest or weed control at 62 g/ha ([4]; pre-emergence, Preemergence) of 100%. The pest or weed control at 125 g/ha ([4]; pre-emergence, Preemergence) was 100%, the plant injury at 16 g/ha ([5]; post-emergence, Postemergence) was 5% and the plant injury at 31 g/ha ([5]; post-emergence, Postemergence) was 10%. The plant injury at 62 g/ha ([5]; post-emergence, Postemergence) was 10%, the plant injury at 125 g/ha ([5]; post-emergence, Postemergence) was 15% and the plant injury at 16 g/ha ([5]; pre-emergence, Preemergence) was 0%. The plant injury at 31 g/ha ([5]; pre-emergence, Preemergence) was 5%, the plant injury at 62 g/ha ([5]; pre-emergence, Preemergence) was 25% and the plant injury at 125 g/ha ([5]; pre-emergence, Preemergence) was 40%. For the same molecule, the pest or weed control at 16 g/ha ([6]; post-emergence, Postemergence) was 75%, the pest or weed control at 31 g/ha ([6]; post-emergence, Postemergence) was 85% and the pest or weed control at 62 g/ha ([6]; post-emergence, Postemergence) was 90%. The pest or weed control at 125 g/ha ([6]; post-emergence, Postemergence) was 95%, the pest or weed control at 16 g/ha ([6]; pre-emergence, Preemergence) was 45% and the pest or weed control at 31 g/ha ([6]; pre-emergence, Preemergence) was 100%. For the same molecule, the pest or weed control at 62 g/ha ([6]; pre-emergence, Preemergence) was 100%, the pest or weed control at 125 g/ha ([6]; pre-emergence, Preemergence) was 100% and the pest or weed control at 16 g/ha ([7]; post-emergence, Postemergence) was 10%. For the same molecule, the pest or weed control at 31 g/ha [7, 12] was 15%, the pest or weed control at 62 g/ha ([7]; post-emergence, Postemergence) was 25% and the pest or weed control at 125 g/ha ([7]; post-emergence, Postemergence) was 40%. For the same molecule, the pest or weed control at 16 g/ha ([7]; pre-emergence, Preemergence) was 0%, the pest or weed control at 62 g/ha ([7]; pre-emergence, Preemergence) was 100% and the pest or weed control at 125 g/ha ([7]; pre-emergence, Preemergence) was 100%. For the same molecule, the pest or weed control at 16 g/ha ([8]; post-emergence, Postemergence) was 10%, the pest or weed control at 31 g/ha ([8]; post-emergence, Postemergence) was 5% and the pest or weed control at 62 g/ha ([8]; post-emergence, Postemergence) was 10%. The pest or weed control at 125 g/ha ([8]; post-emergence, Postemergence) was 15%, the pest or weed control at 16 g/ha ([8]; pre-emergence, Preemergence) was 0% and the pest or weed control at 31 g/ha ([8]; pre-emergence, Preemergence) was 10%. It also gave a pest or weed control at 62 g/ha ([8]; pre-emergence, Preemergence) of 80%, a pest or weed control at 125 g/ha ([8]; pre-emergence, Preemergence) of 100% and a pest or weed control at 16 g/ha ([9]; post-emergence, Postemergence) of 80%. The pest or weed control at 31 g/ha ([9]; post-emergence, Postemergence) was 80%, the pest or weed control at 62 g/ha ([9]; post-emergence, Postemergence) was 85% and the pest or weed control at 125 g/ha ([9]; post-emergence, Postemergence) was 85%. For the same molecule, the pest or weed control at 16 g/ha ([9]; pre-emergence, Preemergence) was 35%, the pest or weed control at 31 g/ha ([9]; pre-emergence, Preemergence) was 100% and the pest or weed control at 62 g/ha ([9]; pre-emergence, Preemergence) was 100%. It also gave a pest or weed control at 125 g/ha ([9]; pre-emergence, Preemergence) of 100%, a pest or weed control at 16 g/ha ([10]; post-emergence, Postemergence) of 15% and a pest or weed control at 31 g/ha ([10]; post-emergence, Postemergence) of 15%. It also gave a pest or weed control at 62 g/ha ([10]; post-emergence, Postemergence) of 25%, a pest or weed control at 125 g/ha ([10]; post-emergence, Postemergence) of 55% and a pest or weed control at 16 g/ha ([10]; pre-emergence, Preemergence) of 15%. It also gave a pest or weed control at 31 g/ha ([10]; pre-emergence, Preemergence) of 15%, a pest or weed control at 62 g/ha ([10]; pre-emergence, Preemergence) of 100% and a pest or weed control at 125 g/ha ([10]; pre-emergence, Preemergence) of 100%. The pest or weed control at 16 g/ha ([11]; post-emergence, Postemergence) was 90%, the pest or weed control at 31 g/ha ([11]; post-emergence, Postemergence) was 80% and the pest or weed control at 62 g/ha ([11]; post-emergence, Postemergence) was 95%. It also gave a pest or weed control at 125 g/ha ([11]; post-emergence, Postemergence) of 95%, a pest or weed control at 16 g/ha ([11]; pre-emergence, Preemergence) of 55% and a pest or weed control at 31 g/ha ([11]; pre-emergence, Preemergence) of 100%. It also gave a pest or weed control at 62 g/ha ([11]; pre-emergence, Preemergence) of 100% and a pest or weed control at 125 g/ha ([11]; pre-emergence, Preemergence) of 100%.

Reference: patent publication US10131652B2, “Pyrimidinyloxy benzene derivatives as herbicides” (E. I. DU PONT DE NEMOURS AND COMPANY, priority 2014, dated 2018)
